In ChEMBL document CHEMBL5441456, “ASAP - SARS-CoV-2 nsp3 macrodomain dose response” (2024) one finds IC50 data, which are given here for 88 molecules.

The term IC50 denotes the concentration at which inhibition is half-maximal. High values mean weaker potency in that assay, low ones greater potency in that assay.

SMILES strings stand for the structures. Where “and” joins values, the source holds several entries; their conditions need not be identical. Equal values may be shown once. A value given as a limit tells only on which side of the number the result lay.

This test concerns the target Replicase polyprotein 1ab (Severe acute respiratory syndrome coronavirus 2, UniProt P0DTD1). The experiment in a line: Functional biochemical assay to identify treatments for viral infectious disease that targets SARS-COV-2 nsp3 macrodomain, whereby the mechanism of action displaces an ADP-Ribose modified peptide from the binding site. Utilizing a time-resolved fluorescence method to measure binding by reading the emitted fluorescence intensity in two wavelengths.
Take `O[C@H]1C[C@](CNc2ncnc3[nH]ccc23)(c2ccccc2)C1`: the IC50 is over 124 µM.

The molecule `O=C(OCc1ccc(Cl)nc1)c1ncnc2[nH]ccc12` registered a 50% inhibitory concentration (IC50) of over 99.5 µM.

`Cc1cccc(Cl)c1-n1sc(=O)n(CC2CC2)c1=O` had a half-inhibitory concentration (IC50) of 23 µM.

Regarding `O=C(c1ccccc1)N1CCC(c2ccn3ncc(C(=O)N4CCc5nc[nH]c5C4)c3c2)CC1`, the half-inhibitory concentration (IC50) was over 99.5 µM.

For the molecule `O=C(O)c1cnc(C(=O)N2CCC(c3ccn4ncc(C(=O)N5CCCCC5)c4c3)CC2)cn1`, the half-maximal inhibitory concentration (IC50) is over 99.5 µM.

With `OC[C@@]1(Cc2ccc(F)cc2)CCN(c2ncnc3[nH]ccc23)C1`, the 50% inhibitory concentration (IC50) was over 99.5 µM.

In the case of `Cc1ccc2c(c1)C[C@@H](C(=O)N(C)CC[C@@H](Nc1ncnc3[nH]ccc13)C(C)C)S2`, the IC50 was over 99.5 µM.

`O=C(OCc1cccc(Cl)n1)c1ncnc2[nH]ccc12` yielded an IC50 of over 124 µM.

`O=C(Nc1cnc2[nH]ncc2c1)C1CCN(c2ccc3nncn3n2)CC1` returned an IC50 of over 124 µM.

As to `COc1cccc(CSC[C@@H](NC(=O)c2ncnc3[nH]ccc23)C(=O)O)c1`, the IC50 was over 99.5 µM.

The molecule `CC(C)[C@@H](Nc1ncnc2[nH]ccc12)c1nc2ccccc2[nH]1` displayed an IC50 of 96.6 µM.

Regarding `FC(F)(F)CO[C@@H]1CCCN(c2ncnc3[nH]ccc23)C1`, the 50% inhibitory concentration (IC50) is over 124 µM.

On to `O=C(O)c1cn(CCNC(=O)c2ncnc3[nH]ccc23)cn1`, for which the 50% inhibitory concentration (IC50) is over 99.5 µM.

`Cc1[nH]c2ncnc(NCc3ccco3)c2c1C`: the concentration for half-maximal inhibition (IC50) was over 99.5 µM.

With `O=C(c1c[nH]c(=O)cn1)N1CCC(c2ccn3ncc(C(=O)N4CCCCC4)c3c2)CC1`, the IC50 was found to be 78.4 µM.

`CS(=O)(=O)NC1CCC(Nc2ccc([C@@H](CC(=O)O)NC(=O)c3c[nH]c4ncncc34)cc2)CC1` (stereo partly drawn) returned an IC50 of over 99.5 µM.

With `O=C(OCc1ncccc1Cl)c1ncnc2[nH]ccc12`, the IC50 was over 99.5 µM.

For `O=C(N[C@@H](C(=O)O)C1Cc2ccccc2C1)c1ncnc2[nH]ccc12`, the concentration for half-maximal inhibition (IC50) is over 99.5 µM.

For the molecule `O=C(c1ncc[nH]1)N1CCC(c2ccn3ncc(C(=O)N4CCCCC4)c3c2)CC1`, the IC50 was over 99.5 µM.

For the molecule `Cc1[nH]c2ncnc(NC(=O)c3ncn(-c4ccccc4)n3)c2c1C`, the half-inhibitory concentration (IC50) is over 99.5 µM.

With `Brc1ccc(-n2nnnc2Sc2ncnc3[nH]ccc23)cc1`, the IC50 was over 124 µM.

For `Cc1nc(C)c(CC(=O)Nc2cnc3[nH]ncc3c2)c(=O)[nH]1`, the concentration for half-maximal inhibition (IC50) is over 99.5 µM.

`Cc1ccc2snc(C(=O)N(C)CC[C@@H](Nc3ncnc4[nH]ccc34)C(C)C)c2c1` yielded a 50% inhibitory concentration (IC50) of over 99.5 µM.

The molecule `O=C(O)c1sccc1C(=O)N1CCC(c2ccn3ncc(C(=O)N4CCCCC4)c3c2)CC1` came in with a 50% inhibitory concentration (IC50) of 38 µM.

For the molecule `CC(C)[C@H]1N(c2ncnc3[nH]ccc23)CC12CCOCC2`, the concentration for half-maximal inhibition (IC50) is over 99.5 µM.

Turning to `Cc1ncnc2c1C[C@@H](C(=O)N(C)CC[C@@H](Nc1ncnc3[nH]ccc13)C(C)C)CC2`, the IC50 is over 99.5 µM.

Molecule `O=C(c1cn2ncccc2n1)N1CCC(c2ccn3ncc(C(=O)N4CCCCC4)c3c2)CC1` displayed an IC50 of over 99.5 µM.

Turning to `Cc1[nH]c2ncnc(NC(=O)[C@@H]3CCO[C@@H]3C)c2c1C`, the 50% inhibitory concentration (IC50) turned out to be 122 µM.

On to `C[C@@H](CO)Nc1ncnc2[nH]c(C(=O)OC(C)(C)C)cc12`, for which the IC50 was over 124 µM.

Molecule `Cc1nc2ccc(C(=O)N(C)CC[C@@H](Nc3ncnc4[nH]ccc34)C(C)C)cc2s1` registered an IC50 of over 99.5 µM.

As for `Cn1cc([C@@H](Nc2ncnc3[nH]ccc23)c2ccc(F)cc2)cn1`, the concentration for half-maximal inhibition (IC50) was over 99.5 µM.

In turn, `O=C(NCc1cc2n(n1)CCCC2)c1cc2cncnc2[nH]1` returned a half-maximal inhibitory concentration (IC50) of over 124 µM.

With `C[C@@H](Cc1ccc(Cl)s1)Nc1ccc([C@@H](CC(=O)O)NC(=O)c2ncnc3[nH]ccc23)cc1`, the IC50 is 46.5 µM and 46.7 µM.

Regarding `O=C(N[C@@H](C(=O)O)c1ccc2c(c1)CCO2)c1ncnc2[nH]ccc12`, the half-maximal inhibitory concentration (IC50) is 78.4 µM and 74.6 µM.

With `O=C(Nc1ccccc1)Nc1ccc(C(=O)NC2c3cccc(O)c3CC2C(=O)O)cc1` (stereo not drawn), the half-maximal inhibitory concentration (IC50) was 1.02 µM and 1.06 µM and 650 nM and 440 nM (3×) and 535 nM and 555 nM and 628 nM and 598 nM and 632 nM (2×) and 644 nM and 653 nM (2×) and 470 nM and 462 nM and 430 nM and 474 nM and 540 nM and 599 nM and 592 nM and 435 nM and 316 nM and 338 nM and 701 nM and 439 nM and 411 nM and 374 nM (2×) and 353 nM (2×) and 447 nM and 847 nM and 925 nM and 461 nM and 794 nM and 731 nM and 432 nM and 1.1 µM and 317 nM and 406 nM and 649 nM and 516 nM and 384 nM and 402 nM and 289 nM and 506 nM and 262 nM and 224 nM.

`Cc1cccc(C)c1-n1nnnc1CSc1ncnc2[nH]cnc12` returned a 50% inhibitory concentration (IC50) of over 99.5 µM.

On to `CO[C@@H]1CCCN(C(=O)c2cnn3ccc(C4CCN(C(=O)c5ccccc5)CC4)cc23)C1`, for which the IC50 was over 99.5 µM.

The molecule `CC(C)[C@@H]1C(=O)NCCN1c1ncnc2[nH]ccc12` showed a concentration for half-maximal inhibition (IC50) of 35.3 µM.

Molecule `CC(C)[C@@H](Nc1ncnc2[nH]ccc12)C(N)=O` came in with an IC50 of 30.7 µM.

For `CC(C)(NC(=O)c1ncnc2[nH]ccc12)c1cc(C(=O)O)[nH]n1`, the IC50 was over 99.5 µM.

In turn, `O=C(O)c1ccc(C(=O)N2CCC(c3ccn4ncc(C(=O)N5CCCCC5)c4c3)CC2)o1` showed an IC50 of 68.1 µM.

Turning to `C=CCn1c(Sc2ncnc3[nH]ccc23)nc2sccc2c1=O`, the 50% inhibitory concentration (IC50) is over 99.5 µM.

As to `O=C(N[C@H]1CCC[C@H]1C(=O)O)c1cnn2ccc(C3CCN(C(=O)c4ccccc4)CC3)cc12`, the IC50 turned out to be 35.8 µM. In other words, the double-digit micromolar range.

On to `CC[C@@H]1C[C@@H](C(=O)Nc2ncnc3[nH]c(C)c(C)c23)CCO1`, for which the half-inhibitory concentration (IC50) was over 124 µM.

Regarding `CC(C)[C@@H](CCN(C)C(=O)c1cccc2cc(F)ccc12)Nc1ncnc2[nH]ccc12`, the IC50 is over 99.5 µM.

In the case of `Cc1nccc(C(=O)N2CCC(c3ccn4ncc(C(=O)N5CCCCC5)c4c3)CC2)n1`, the half-maximal inhibitory concentration (IC50) is over 99.5 µM.

For the molecule `CC(C)OCCNC(=O)c1cc2c(=O)n3ccccc3nc2n1C`, the IC50 is over 124 µM.

Molecule `Cc1csc(NC(=O)CSC[C@@H](NC(=O)c2ncnc3[nH]ccc23)C(=O)O)n1` came in with an IC50 of over 99.5 µM.

`O=C(Nc1ccc(C(=O)NCc2c(C(=O)O)[nH]c3ccccc23)cc1)NC1CC1` came in with an IC50 of 13.6 µM. In other words, the double-digit micromolar range.

Consider `NS(=O)(=O)c1ccccc1CNc1ncnc2[nH]ccc12`, for which the 50% inhibitory concentration (IC50) is over 124 µM.

Regarding `Cc1n[nH]c(C)c1C(=O)N1CCC(c2ccn3ncc(C(=O)N4CCCCC4)c3c2)CC1`, the half-inhibitory concentration (IC50) was over 99.5 µM.

In turn, `O=C(c1nnn[nH]1)N1CCC(c2ccn3ncc(C(=O)N4CCCCC4)c3c2)CC1` registered a half-inhibitory concentration (IC50) of 28.3 µM.

`O=C(c1cnc[nH]1)N1CCC(c2ccn3ncc(C(=O)N4CCCCC4)c3c2)CC1` gave a half-maximal inhibitory concentration (IC50) of over 99.5 µM.

With `c1ccc(-c2cc(CNc3ncnc4[nH]ccc34)on2)cc1`, the 50% inhibitory concentration (IC50) was over 124 µM.

`C[C@H]1C[C@H]1c1nnc(Nc2ccc([C@@H](CC(=O)O)NC(=O)c3ncnc4[nH]ccc34)cc2)o1`: the IC50 was 7.86 µM and 6.04 µM.

`O=C(CCN(Cc1cccc(Cl)c1)C(=O)c1ccc(F)cn1)N1CCNCC1` returned an IC50 of over 99.5 µM.

`O=C(c1cccnc1S)N1CCC(c2ccn3ncc(C(=O)N4CCCCC4)c3c2)CC1` showed an IC50 of 61.6 µM.

For the molecule `O=C(c1cc(O)ccn1)N1CCC(c2ccn3ncc(C(=O)N4CCCCC4)c3c2)CC1`, the IC50 is over 99.5 µM.

Molecule `O=C(Nc1ncnc2c(C(=O)Nc3ccccc3C(=O)N3CCCC3)csc12)NC1CC1` returned an IC50 of over 99.5 µM.

In turn, `CC(C)[C@@H](CCN(C)C(=O)c1cc2nccnc2cc1F)Nc1ncnc2[nH]ccc12` yielded a half-maximal inhibitory concentration (IC50) of over 99.5 µM.

As for `O=C(O)c1cn(CCCNC(=O)c2ncnc3[nH]ccc23)nn1`, the IC50 was over 99.5 µM.

The molecule `OC[C@@H](Nc1ncnc2[nH]c(I)cc12)c1ccccc1` displayed a half-inhibitory concentration (IC50) of over 124 µM.

`COc1ccc2c(c1)CCN(c1ncnc3[nH]ccc13)[C@H]2C(C)C`: the IC50 is 14.2 µM and 12 µM.

As to `CC(C)[C@@H](Nc1ncnc2[nH]ccc12)c1cccs1`, the IC50 came out at 14.9 µM. This lies in the double-digit micromolar range.

Molecule `Cn1cc([C@@H](Nc2ncnc3[nH]ccc23)C2CCC2)cn1` had a half-inhibitory concentration (IC50) of 15 µM.

For the molecule `Cc1cc(NCc2cnc3c(c2)NC(=O)CO3)cnc1C`, the IC50 is over 124 µM.

Molecule `Cc1[nH]c2ncnc(NC(=O)C3CC(C(F)(F)F)C3)c2c1C` (stereo not drawn) returned an IC50 of over 99.5 µM.

`Cc1n[nH]nc1C(=O)N1CCC(c2ccn3ncc(C(=O)N4CCCCC4)c3c2)CC1` yielded an IC50 of over 99.5 µM.

`COc1ccccc1C[C@@H](Nc1ncnc2[nH]ccc12)C(C)C` yielded an IC50 of 97.5 µM.

Consider `O=C(O)c1ccsc1C(=O)N1CCC(c2ccn3ncc(C(=O)N4CCCCC4)c3c2)CC1`, for which the IC50 is 58.9 µM.

Consider `CC(C)[C@@H](Nc1ncnc2[nH]ccc12)C(F)F`, for which the IC50 came to 15.2 µM.

The molecule `Cc1nc(C(=O)N2CCC(c3ccn4ncc(C(=O)N5CCCCC5)c4c3)CC2)c(=O)[nH]c1C` displayed an IC50 of over 99.5 µM.

For `c1cc(-c2nnc(Sc3ncnc4[nH]ccc34)[nH]2)ccn1`, the 50% inhibitory concentration (IC50) is over 124 µM.

The molecule `CC(C)c1c[nH]nc1NC(=O)c1ccc(NC(=O)Nc2ccccc2)cc1` came in with an IC50 of over 99.5 µM.

In turn, `CC(C)[C@@H](Nc1ncnc2n[nH]cc12)c1cnn(C)c1` yielded a half-inhibitory concentration (IC50) of 43.1 µM.

Take `CC(C)(C)n1cc([C@H]2N(c3ncnc4[nH]ccc34)CC23CCOCC3)cn1`: the IC50 was over 99.5 µM.

In turn, `O=C(c1cccc(Br)c1)N1CCC(c2ccn3ncc(C(=O)N4CCCCC4)c3c2)CC1` returned a half-inhibitory concentration (IC50) of over 124 µM.

Turning to `Cn1nc(C(=O)O)cc1C(=O)N1CCC(c2ccn3ncc(C(=O)N4CCCCC4)c3c2)CC1`, the 50% inhibitory concentration (IC50) is over 99.5 µM.

On to `Cn1nc(C(=O)N2CCC(c3ccn4ncc(C(=O)N5CCCCC5)c4c3)CC2)cc1C(=O)O`, for which the concentration for half-maximal inhibition (IC50) turned out to be 66.4 µM.

For the molecule `Cc1ccc(-c2n[nH]cc2CNc2cnc3[nH]ncc3c2)o1`, the half-inhibitory concentration (IC50) is over 124 µM.

On to `Cn1ncc2c(NCc3ncccc3O)ncnc21`, for which the IC50 is over 124 µM.

As for `O=C(c1ccccc1)N1CCC(c2ccn3ncc(C(=O)N4CCCC[C@H](O)C4)c3c2)CC1`, the half-inhibitory concentration (IC50) is over 99.5 µM.

Turning to `CC(=O)Nc1ccc(S(=O)(=O)NNc2ncnc3sccc23)cc1`, the half-maximal inhibitory concentration (IC50) was over 99.5 µM.

Take `CC(C)[C@@H](CCN(C)C(=O)c1nn(C)c2ccc(F)cc12)Nc1ncnc2[nH]ccc12`: the half-maximal inhibitory concentration (IC50) was over 99.5 µM.

With `O=C(O)[C@H]1CCCCCN1C(=O)c1ncnc2[nH]ccc12`, the half-inhibitory concentration (IC50) was over 124 µM.

`Cc1[nH]c2ncnc(NC(=O)CCc3ccccc3)c2c1C`: the IC50 was over 99.5 µM.

On to `CC(C)[C@@H](CN1CCCCC1)Nc1ncnc2[nH]ccc12`, for which the IC50 was over 99.5 µM.

For `C[C@H]1C[C@H]1c1nnc(Nc2ccc([C@@H](CC(=O)O)NC(=O)c3c[nH]c4ncncc34)cc2)o1`, the IC50 is 85.2 µM and 97 µM.
